In patent publication US4633014A, “Substituted 3-hydrazinopropionates” (priority 1983, dated 1986):

Tests used:
[1] = test system: arrhythmia induced by an intravenous administration of calcium chloride; assay: Antiarrhythmic activity on a model of arrhythmia induced by intravenous calcium chloride (antagonism to calcium) in mice; type: in vivo; conditions: white mice, 20-40 minutes before
Description: The specific (antiarrhythmic) effect and acute toxicity were studied.
The antiarrhythmic activity of the compounds according to the present invention was studied on a model of arrhythmia induced by an intravenous administration of calcium chloride. In experiments on white mice of both sexes with a mass of 18-25 g narcotized by urethane (1,200 mg/kg intraperitoneally) ECG in the second standard lead was recorded. A 2% solution of calcium chloride was introduced into the tail vein at a constant rate (0.01 ml for 2 sec). The dose of calcium chloride causing arrhythmia and the dose causing the heart arrest were determined. In the test groups the test compounds were administered intraperitoneally 20-40 minutes before the beginning of the experiment.

[2] = test system: white mice; assay: in vivo
Description: (§1) The study of the effect provided by the compounds according to the present invention on the cardio-vascular system was carried out in experiments on white mice. The specific (antiarrhythmic) effect and acute toxicity were studied.
(§2) The acute toxicity of the compounds according to the present invention was determined in experiments on white mice with a mass of 20-25 g. The test compounds were administered intraperitoneally in the form of aqueous solutions or suspensions in Twin-80. Observation over the test animals was effected for 10 days.

[3] = in vivo; conditions: mouse, in vivo, ip
Description: as §1, §2

| SMILES | Dose of calcium chloride causing arrythmia in animals under experiment ([1]; intraperitoneal dose 5 mg/kg) | Dose of calcium chloride causing death in animals under experiment ([1]; intraperitoneal dose 5 mg/kg) | Dose of calcium chloride causing arrythmia in animals under experiment ([1]; intraperitoneal dose 25 mg/kg) | Dose of calcium chloride causing death in animals under experiment ([1]; intraperitoneal dose 25 mg/kg) | Relative toxisity to quinidine ([2]; mouse, in vivo, ip, 14400 min) | LD50 at 240 h [3] [mg/kg] | Dose of calcium chloride causing arrythmia in animals under experiment ([1]; intraperitoneal dose 15 mg/kg) | Dose of calcium chloride causing death in animals under experiment ([1]; intraperitoneal dose 15 mg/kg) | Relative toxisity to quinidine ([2]; white mice, intraperitoneal, relative to quinidine) |
| --- | --- | --- | --- | --- | --- | --- | --- | --- | --- |
| CNC(=O)N(CCC#N)N(C)C [I-21, 3-(2,2-dimethyl-1-methylcarbamoylhydrazino)propionitrile] | 87,5 mg/kg | 111,5 mg/kg | 113,6 mg/kg | 128,0 mg/kg | 11,5 | 1800 |  |  |  |
| C=CCNC(=S)N(CCC#N)N(C)C [I-22, 3-(2,2-dimethyl-1-allylthiocarbamoylhydrazino)propionitrile] | 92,5 mg/kg | 108,0 mg/kg | 130,0 mg/kg | 146,0 mg/kg | 9,3 | 1450 |  |  |  |
| CN(C)N(CCC#N)C(=S)Nc1ccccc1 [I-23, 3-(2,2-dimethyl-1-phenylthiocarbamoylhydrazino)propionitrile] | 86 mg/kg | 101,3 mg/kg | 117,7 mg/kg | 119,0 mg/kg | 10,7 | 1680 |  |  |  |
| COC(=O)CCN(C(C)=O)N(C)C [I-24, 3-(2,2-Dimethyl-1-acetylhydrazino)methylpropionate] | 108,0 mg/kg | 132,0 mg/kg |  |  | 8,3 | 1300 | 116,5 mg/kg | 140,3 mg/kg |  |
| CCCC(=O)N(CCC(=O)OC)N(C)C [I-25, 3-(2,2-dimethyl-1-butyrylhydrazino)-methylpropionate] | 105,1 mg/kg | 112,3 mg/kg | 77,0 mg/kg | 95,0 mg/kg | 11,2 | 1750 |  |  |  |
| CCCCCC(=O)N(CCC(=O)OC)N(C)C [I-26, 3-(2,2-dimethyl-1-hexanoylhydrazino)methylpropionate] | 111,3 mg/kg | 138,0 mg/kg |  |  |  | 630 | 107,6 mg/kg | 140,0 mg/kg | 4,0 |
| CCCCCCCCCCCCCCCC(=O)N(CCC(=O)OC)N(C)C [I-27, 3-(2,2-dimethyl-1-hexadecanoylhydrazino)methylpropionate] | 92,7 mg/kg | 118,0 mg/kg |  |  | 15,2 | 2380 | 109,0 mg/kg | 120,6 mg/kg |  |
| CCCCCCCCCCCCCCCCCC(=O)N(CCC(=O)OC)N(C)C [I-28, 3-(2,2-dimethyl-1-octadecanoylhydrazino)methylpropionate] | 90,1 mg/kg | 108 mg/kg | 133,8 mg/kg | 143 mg/kg | 39,4 | 6150 |  |  |  |
| COC(=O)CCN(C(=O)c1ccccc1)N(C)C [I-29, 3-(2,2-dimethyl-1-benzoylhydrazino)methylpropionate] | 97,6 mg/kg | 109,5 mg/kg | 140,2 mg/kg | 142,0 mg/kg | 22,4 | 3500 |  |  |  |
